In patent US20260207755A1, “TARGETED PROTEIN DEGRADERS OF INDOLEAMINE 2,3-DIOXYGENASE 1 (IDO1)” (Northwestern University, priority 2022, published 2026):

Experiments:
[1] = biological target: T1, IDO1-PROTAC-CRBN ternary complex (Homo sapiens, UniProt P14902+Q96SW2); assay: BLI IDO1-PROTAC-CRBN ternary complex; type: binding; conditions: IDO1 on NiNTA sensors, PROTAC pre-incubated with 25 molar excess of CRBN, 1:1 kinetic model
T1 construct: purchased Active Motif (IDO1); Sino Biological (CRBN) 81031 (IDO1); none given for CRBN
Description: (§1) FIGS. 13A-13C show mechanistic understanding of IDO1-PROTAC-induced IDO1 degradation. […] Data sets fitted globally with a 1:1 kinetic model. FIG. 13B is BLI sensorgrams showing association and dissociation of compound NU227164 to CRBN protein pre-immobilized on AR2G sensors. Binding experiments and data fitting were performed as described above. FIG. 13C is BLI sensorgrams for the IDO1-NU227164-CRBN ternary complex. IDO1 protein was loaded onto NiNTA biosensors. IDO1 was pre-immobilized on NI NTA sensors, and binding of compound NU227164 preincubated with CRBN was monitored in the association step; next, the sensors were moved into reaction buffer in order monitor dissociation. As indicated in the legend, each trace corresponds to a different concentration of NU227164. Data sets fitted globally with a 1:1 kinetic model. No binding was detected between CRBN and IDO1 in the absence of NU227164 (trace “CRBN only”).
(§2) FIGS. 14A-14C illustrate mechanistic understanding of DO1-PROTAC-induced IDO1 degradation. […] The equilibrium dissociation constant (Kd) was obtained by fitting the steady state data (Req as a function of compound concentration) with a 1:1 binding model. FIG. 14B is BLI sensorgrams showing association and dissociation of compound NU227168 to CRBN protein pre-immobilized on AR2G sensors. Binding experiments and data fitting were performed as described above. FIG. 14C is BLI sensorgrams for the IDO1-NU227168-CRBN ternary complex. IDO1 protein was loaded onto NiNTA biosensors. IDO1 was pre-immobilized on NI NTA sensors, and binding of compound NU227168 preincubated with CRBN was monitored in the association step; next, the sensors were moved into reaction buffer in order monitor dissociation. As indicated in the legend, each trace corresponds to a different concentration of NU227168. Data sets fitted globally with a 1:1 kinetic model. No binding was detected between CRBN and IDO1 in the absence of NU227168 (trace “CRBN only”).
(§3) FIGS. 15A-15C show mechanistic understanding of IDO1-PROTAC-induced IDO1 degradation. […] The equilibrium dissociation constant (Kd) was obtained by fitting the steady state data (Req as a function of compound concentration) with a 1:1 binding model. FIG. 15B is BLI sensorgrams showing association and dissociation of compound NU227191 to CRBN protein pre-immobilized on AR2G sensors. Binding experiments and data fitting were performed as described above. FIG. 15C is BLI sensorgrams for the IDO1-NU227191-CRBN ternary complex. IDO1 protein was loaded onto NiNTA biosensors. IDO1 was pre-immobilized on NI NTA sensors, and binding of compound NU227191 preincubated with CRBN was monitored in the association step; next, the sensors were moved into reaction buffer in order monitor dissociation. As indicated in the legend, each trace corresponds to a different concentration of NU227191. Data sets fitted globally with a 1:1 kinetic model. No binding was detected between CRBN and IDO1 in the absence of NU227191 (trace “CRBN only”).
(§4) FIGS. 16A-16C show mechanistic understanding of IDO1-PROTAC-induced IDO1 degradation. […] The equilibrium dissociation constant (Kd) was obtained by fitting the steady state data (Req as a function of compound concentration) with a 1:1 binding model. FIG. 16B is BLI sensorgrams showing association and dissociation of compound NU227199 to CRBN protein pre-immobilized on AR2G sensors. Binding experiments and data fitting were performed as described above. FIG. 16C is BLI sensorgrams for the IDO1-NU227199-CRBN ternary complex. IDO1 protein was loaded onto NiNTA biosensors. IDO1 was pre-immobilized on NI NTA sensors, and binding of compound NU227199 preincubated with CRBN was monitored in the association step; next, the sensors were moved into reaction buffer in order monitor dissociation. As indicated in the legend, each trace corresponds to a different concentration of NU227199. Data sets fitted globally with a 1:1 kinetic model. […]

[2] = biological target: T2, 6×His tagged recombinant IDO1 protein (Homo sapiens, UniProt P14902); assay: BLI binary binding of IDO1-PROTAC to immobilized IDO1; conditions: IDO1 on Ni-NTA sensors, PBS+0.5% DMSO pH 7.4, 30° C
T2 construct: purchased Active Motif 81031
Description: as §1, §2, §3, §4

cereblon (CRBN) protein = biological target: T3, cereblon (CRBN) protein (Homo sapiens, UniProt Q96SW2); assay: BLI binary binding of IDO1-PROTAC to immobilized CRBN; conditions: CRBN amine coupled to AR2G sensors
T3 construct: purchased Sino Biological
Description: as §1, §2, §3, §4

kynurenine in U87 cells = assay: Kynurenine assay (Ehrlich's reagent) in U87 cells; type: cell-based; conditions: indicated doses of compound
Description: (§5) FIGS. 20A-20E show biological activity of compounds NU227326 and NU227327.
Kynurenine levels in cell culture supernatants were measured using Erhlich's reagent. Briefly, cell culture supernatants were incubated with a 10% final concentration of trichloroacetic acid in Eppendorf tubes for 20 min at 60° C. to release kynurenine from cells and to precipitate proteins. After 20 minutes, samples were centrifuged for 20 min at 2500×g and supernatants were mixed with 20 mg/mL 4-dimethylamino benzaldehyde in acetic acid (Sigma Aldrich) at a 1:1 ratio and absorbance was measured at 480 nm using a plate reader.

IDO1 in U87 cells = biological target: T4, IDO1 in U87 cells (Homo sapiens, UniProt P14902); assay: PROTAC-induced IDO1 degradation in U87 cells by Western blot; type: cell-based; conditions: 24 h
T4 construct: endogenous in cells; host or cells: U87 cells, IDO1 induced with IFNγ
Description: as §5
(§6) FIGS. 22A-22D show determination of IDO1 degrading potency of NU227326.
(§7) Protein samples were prepared by lysing the cells in RIPA buffer (Sigma-Aldrich, Cat #R0278) supplemented with protease and phosphatase inhibitors on ice for 30 min. Cell lysates were clarified by centrifugation at 16,000×g for 15 min at 4° C. Equal amounts of proteins as quantified by bicinchoninic acid assay (Pierce) were separated on an SDS-polyacrylamide gel electrophoresis and proteins were electrophoretically transferred onto a polyvinylidene fluoride (PVDF) membrane using a Trans-Blot Turbo Transfer System (Bio-Rad, Hercules, CA, USA). The blotted membranes were blocked for 1 h at room temperature in blocking buffer containing 5% (w/v) nonfat dry milk in Tris-buffered saline and 0.1% Tween 20 (TBS-T) followed by incubating the membranes overnight at 4° C. with primary antibodies against a target protein diluted at a standardized concentration in blocking buffer. […] The protein bands were detected using an enhanced chemiluminescence reagent (SuperSignal West Femto Maximum Sensitivity substrate) and blots were visualized with Bio-Rad ImageLab software on a Bio-Rad […] MP imaging system. […]

IDO1 in GBM43 cells = biological target: T5, IDO1 in GBM43 cells (Homo sapiens, UniProt P14902); assay: PROTAC-induced IDO1 degradation in GBM43 cells by Western blot; type: cell-based; conditions: 24 h
T5 construct: endogenous in cells; host or cells: GBM43 cells
Description: as §5, §6, §7

[3] = levels of IDO1 quantified from Western blot

T3 sequence (Q96SW2 whole entry): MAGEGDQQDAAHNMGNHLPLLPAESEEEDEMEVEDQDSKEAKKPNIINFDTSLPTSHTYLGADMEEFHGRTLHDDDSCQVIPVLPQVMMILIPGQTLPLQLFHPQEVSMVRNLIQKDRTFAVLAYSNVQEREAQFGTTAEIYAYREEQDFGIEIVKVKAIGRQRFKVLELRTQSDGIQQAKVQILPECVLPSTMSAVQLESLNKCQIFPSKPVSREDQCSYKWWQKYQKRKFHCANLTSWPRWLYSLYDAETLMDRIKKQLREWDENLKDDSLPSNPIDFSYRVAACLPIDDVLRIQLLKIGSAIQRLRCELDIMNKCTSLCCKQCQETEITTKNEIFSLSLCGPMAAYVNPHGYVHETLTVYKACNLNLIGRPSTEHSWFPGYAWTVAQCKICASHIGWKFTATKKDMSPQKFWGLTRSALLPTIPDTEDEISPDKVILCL
T5 sequence (P14902 whole entry): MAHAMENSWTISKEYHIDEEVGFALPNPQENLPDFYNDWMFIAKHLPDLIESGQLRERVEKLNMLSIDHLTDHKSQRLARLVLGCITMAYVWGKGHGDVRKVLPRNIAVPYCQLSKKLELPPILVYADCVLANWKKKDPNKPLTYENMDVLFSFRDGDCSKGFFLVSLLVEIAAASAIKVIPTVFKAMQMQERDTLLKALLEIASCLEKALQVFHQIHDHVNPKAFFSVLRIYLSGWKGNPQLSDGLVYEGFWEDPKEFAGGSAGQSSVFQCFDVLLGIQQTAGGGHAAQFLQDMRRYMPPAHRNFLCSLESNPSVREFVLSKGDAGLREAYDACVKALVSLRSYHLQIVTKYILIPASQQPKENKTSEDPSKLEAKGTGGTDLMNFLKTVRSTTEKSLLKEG
T1 sequence (P14902 whole entry): as above
T1 sequence (Q96SW2 whole entry): as the sequence (Q96SW2 whole entry) above
T2 sequence (P14902 whole entry): as the sequence (P14902 whole entry) above
T4 sequence (P14902 whole entry): as above

| Molecule | Kd [1] | Kd [2] | Kd (cereblon (CRBN) protein) | concentration of kynurenine (kynurenine in U87 cells) | IDO1 degradation by Western blotting (IDO1 in U87 cells; indicated concentrations) | DC50 (IDO1 in U87 cells; [3]) | IDO1 degradation by Western blotting (IDO1 in GBM43 cells; indicated concentrations) | DC50 (IDO1 in GBM43 cells; [3]) | IDO1-PROTAC-CRBN Ternary Kd [1] |
| --- | --- | --- | --- | --- | --- | --- | --- | --- | --- |
| C[C@@H](C(=O)Nc1ccc(Cl)c(OC2CCN(C(=O)CN3CCC(CN4CCN(c5ccc6c(c5)C(=O)N(C5CCC(=O)NC5=O)C6=O)CC4)CC3)CC2)c1)[C@H]1CC[C@@H](c2ccnc3ccc(F)cc32)CC1 (stereo partly drawn) [NU227164, (2R)-N-(4-chloro-3-((1-(2-(4-((4-(2-(2,6-dioxopiperidin-3-yl)-1,3-dioxoisoindolin-5-yl)piperazin-1-yl)methyl)piperidin-1-yl)acetyl)piperidin-4-yl)oxy)phenyl)-2-((1s,4,S)-4-(6-fluoroquinolin-4-yl)cyclohexyl)propanamide] | 128 nM | 430 nM | 310 nM | – | – | – | – | – | – |
| C[C@@H](C(=O)Nc1ccc(Cl)c(OC2CCN(C(=O)CN3CCC(N4CCN(c5ccc6c(c5)C(=O)N(C5CCC(=O)NC5=O)C6=O)CC4)CC3)CC2)c1)[C@H]1CC[C@@H](c2ccnc3ccc(F)cc32)CC1 (stereo partly drawn) [NU227168, (2R)-N-(4-chloro-3-((1-(2-(4-(4-(2-(2,6-dioxopiperidin-3-yl)-1,3-dioxoisoindolin-5-yl)piperazin-1-yl)piperidin-1-yl)acetyl)piperidin-4-yl)oxy)phenyl)-2-((1s,4S)-4-(6-fluoroquinolin-4-yl)cyclohexyl)propanamide] | 87 nM | 340 nM | 190 nM | – | – | – | – | – | – |
| C[C@@H](C(=O)Nc1ccc(Cl)c(OC2CCN(C(=O)C3CCN(C[C@H]4CC[C@H](Nc5ccc6c(c5)C(=O)N(C5CCC(=O)NC5=O)C6=O)CC4)CC3)CC2)c1)[C@H]1CC[C@@H](c2ccnc3ccc(F)cc32)CC1 (stereo partly drawn) [NU227199, (2R)-N-(4-chloro-3-((1-(1-(((1r,4r)-4-((2-(2,6-dioxopiperidin-3-yl)-1,3-dioxoisoindolin-5-yl)amino)cyclohexyl)methyl)piperidine-4-carbonyl)piperidin-4-yl)oxy)phenyl)-2-((1s,4S)-4-(6-fluoroquinolin-4-yl)cyclohexyl)propanamide] | 689 nM | 2100 nM | 1600 nM | – | – | – | – | – | – |
| C[C@@H](C(=O)Nc1cccc(OC2CCN(C(=O)CN3CCC(N4CCN(c5ccc6c(c5)C(=O)N(C5CCC(=O)NC5=O)C6=O)CC4)CC3)CC2)c1)[C@H]1CC[C@@H](c2ccnc3ccc(F)cc32)CC1 (stereo partly drawn) [NU227326, (2R)-N-(3-((1-(2-(4-(4-(2-(2,6-dioxopiperidin-3-yl)-1,3-dioxoisoindolin-5-yl)piperazin-1-yl)piperidin-1l-yl)acetyl)piperidin-4-yl)oxy)phenyl)-2-((1s,4S)-4-(6-fluoroquinolin-4-yl)cyclohexyl)propanamide] | 321 nM | 140 nM | 380 nM | strong reduction of cellular kynurenine | dose-dependent IDO1 degradation | 10.4 nM | potent and dose-dependent degradation of IDO1 | 20.3 nM | – |
| C[C@@H](C(=O)Nc1cccc(OC2CCN(C(=O)CN3CCC(CN4CCN(c5ccc6c(c5)C(=O)N(C5CCC(=O)NC5=O)C6=O)CC4)CC3)CC2)c1)[C@H]1CC[C@@H](c2ccnc3ccc(F)cc32)CC1 (stereo partly drawn) [NU227327, (2R)-N-(3-((1-(2-(4-((4-(2-(2,6-dioxopiperidin-3-yl)-1,3-dioxoisoindolin-5-yl)piperazin-1-yl)methyl)piperidin-1-yl)acetyl)piperidin-4-yl)oxy)phenyl)-2-((1s,4S)-4-(6-fluoroquinolin-4-yl)cyclohexyl)propanamide] | 997 nM | 370 nM | 520 nM | strong reduction of cellular kynurenine | – | – | – | – | – |
| (2R)-N-(4-((1-(1-(2-((2-(2,6-dioxopiperidin-3-yl)-1,3-dioxoisoindolin-5-yl)amino)ethoxy)ethyl)piperidine-4-carbonyl)piperidin-4-yl)oxy)phenyl)-2-((1s,4S)-4-(6-fluoroquinolin-4-yl)cyclohexyl)propanamide [NU227191] | – | 12000 nM | 5100 nM | – | – | – | – | – | could not obtain |
